Like-named read-outs stand apart in the source and are kept apart here.
Tests used:
Format in all cases: cell-based, human
[1] = tested on: MYB mRNA; assay: RT-qPCR splicing assay, MYB canonical (CJ) and alternative (AJ) junction mRNA; conditions: Homo sapiens; for AC50: read-out: MYB AJ (AC50, increase in AJ mRNA)
Method in brief: (§1)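 A673 or K562 cells were treated 24 h at 37 °C with an 11-point 3-fold compound dilution series, top dose 10 uM final, DMSO ≤0.25%. Lysates went to one-step RT-qPCR for canonical (CJ) and alternative-exon (AJ) junctions; ΔCt vs GAPDH, GUSB or PPIA, normalized to DMSO, as 2^(-ΔΔCt).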

[2] = tested on: SMN2 mRNA; assay: RT-qPCR splicing assay panel, SMN2 canonical junction (CJ) mRNA; conditions: Homo sapiens, canonical junction (CJ) mRNA, RT-qPCR panel, Table 4A; read-out: SMN2, decrease in CJ mRNA levels, IC50
Method in brief: as §1

[3] = tested on: Target C mRNA; assay: RT-qPCR splicing assay panel, Target C canonical junction (CJ) mRNA; conditions: Homo sapiens, canonical junction (CJ) mRNA, RT-qPCR panel, Table 4A; read-out: Target C, decrease in CJ mRNA levels, IC50
Method in brief: as §1

[4] = tested on: HTT mRNA; assay: RT-qPCR splicing assay, HTT canonical (CJ) and alternative (AJ) junction mRNA; conditions: Homo sapiens; for AC50: read-out: HTT AJ (AC50, increase in AJ mRNA)
Method in brief: as §1

[5] = 24 h, Table 3A, A673 or K562 cells, 24 h treatment
[6] = 24 h, Table 3A, A673 or K562 cells, 24 h treatment, read-out: MYB CJ (IC50, decrease in CJ mRNA)
[7] = canonical junction (CJ) mRNA, RT-qPCR panel, Table 4A, read-out: MYB, decrease in CJ mRNA levels, IC50
[8] = 24 h, Table 3A, A673 or K562 cells, 24 h treatment, read-out: HTT CJ (IC50, decrease in CJ mRNA)
[9] = canonical junction (CJ) mRNA, RT-qPCR panel, Table 4A, read-out: HTT, decrease in CJ mRNA levels, IC50

SMILES	AC50 [1, 5] [nM]	IC50 [1, 6] [nM]	IC50 [1, 7] [nM]	IC50 [2] [nM]	IC50 [3] [nM]	AC50 [4, 5] [nM]	IC50 [4, 8] [nM]	IC50 [4, 9] [nM]
COc1cc(-c2ccc(-c3ccc(N4CCC(NCC5CC5)C4)nn3)c(O)c2)nc(C)n1 (stereo not drawn) [Compound 371]	> 10000	> 10000	> 10000	1000 to 10000	> 10000	1000 to 10000	1000 to 10000	1000 to 10000
Cc1ncc(-c2cc(O)c(-c3ccc(N4CC[C@H](N[C@H](C)C5CC5)C4)nn3)cc2F)s1 [Compound 372]	< 100	< 100	< 100	< 100	< 100	< 100	< 100	< 100
Cc1ncc(-c2cc(O)c(-c3ccc(N4CC[C@@H](N[C@@H](C)C5CC5)C4)nn3)cc2F)s1 [Compound 373]	< 100	< 100	< 100	< 100	< 100	< 100	< 100	< 100
COc1nc(-c2ccc(N3CCC(NC4CCC4)C3)nn2)ccc1-c1cnc(C)s1 (stereo not drawn) [Compound 374]	1000 to 10000	100 to 1000	100 to 1000	< 100	100 to 1000	100 to 1000	100 to 1000	100 to 1000
COc1cc(-c2ccc(-c3ccc(N4CC[C@@](C)(NCC5CC5)C4)nn3)c(O)c2)ncn1 [Compound 375, 2-{6-[(3R)-3-[(cyclopropylmethyl)amino]-3-methylpyrrolidin-1-yl]pyridazin-3-yl}-5-(6-methoxypyrimidin-4-yl)phenol]	1000 to 10000	100 to 1000	100 to 1000	< 100	100 to 1000	100 to 1000	< 100	< 100
COc1cc(-c2ccc(-c3ccc(N4CC[C@](C)(NCC5CC5)C4)nn3)c(O)c2)ncn1 [Compound 376, 2-{6-[(3S)-3-[(cyclopropylmethyl)amino]-3-methylpyrrolidin-1-yl]pyridazin-3-yl}-5-(6-methoxypyrimidin-4-yl)phenol]	100 to 1000	100 to 1000	100 to 1000	< 100	100 to 1000	< 100	< 100	< 100
CC1(C)CC(Oc2ncc(-c3cc(F)c(-c4cn[nH]c4)cc3O)nn2)CC(C)(C)N1 [Compound 377]	1000 to 10000	1000 to 10000	1000 to 10000	100 to 1000	100 to 1000	100 to 1000	100 to 1000	100 to 1000
Cc1nc(F)c(-c2cc(O)c(-c3ccc(N4CCC(NC5CCC5)C4)nn3)cc2F)s1 (stereo not drawn) [Compound 378]	1000 to 10000	1000 to 10000	1000 to 10000	100 to 1000	1000 to 10000	100 to 1000	100 to 1000	100 to 1000
Cc1ncc(-c2ccc(-c3ccc(N4CC[C@@H](NCC5CC5)C4)nn3)c(O)c2)s1 [Compound 379, 2-{6-[(3R)-3-[(cyclopropylmethyl)amino]pyrrolidin-1-yl]pyridazin-3-yl}-5-(2-methyl-1,3-thiazol-5-yl)phenol]	< 100	< 100	< 100	< 100	< 100	< 100	< 100	< 100
Cc1ncc(-c2ccc(-c3ccc(N4CC[C@H](NCC5CC5)C4)nn3)c(O)c2)s1 [Compound 380, 2-{6-[(3S)-3-[(cyclopropylmethyl)amino]pyrrolidin-1-yl]pyridazin-3-yl}-5-(2-methyl-1,3-thiazol-5-yl)phenol]	< 100	< 100	< 100	< 100	< 100	< 100	< 100	< 100
COc1cc(-c2ccc(-c3ccc(N4CC[C@H](NCC5CC5)C4)nn3)c(O)c2)ncn1 [Compound 381, 2-{6-[(3S)-3-[(cyclopropylmethyl)amino]pyrrolidin-1-yl]pyridazin-3-yl}-5-(6-methoxypyrimidin-4-yl)phenol]	100 to 1000	100 to 1000	100 to 1000	< 100	100 to 1000	100 to 1000	< 100	< 100
COc1cc(-c2ccc(-c3ccc(N4CC[C@@H](NCC5CC5)C4)nn3)c(O)c2)ncn1 [Compound 382, 2-{6-[(3R)-3-[(cyclopropylmethyl)amino]pyrrolidin-1-yl]pyridazin-3-yl}-5-(6-methoxypyrimidin-4-yl)phenol]	100 to 1000	100 to 1000	100 to 1000	< 100	100 to 1000	100 to 1000	< 100	< 100

— patent US20250333397A1 (REMIX THERAPEUTICS INC., priority 2021, published 2025)
